Experimental data: the NIST ThermoML archive (doi:10.1021/je1005054)
± gives the expanded uncertainty stated by the source.

Settings: Liquid, Calculated from knudsen effusion weight loss

O=C1CCCCCN1 [1-aza-2-cycloheptanone]
vapor or sublimation pressure (343 K): 0.0263 ± 0.0041 kPa | vapor or sublimation pressure (347.9 K): 0.0372 ± 0.006 kPa | vapor or sublimation pressure (348 K): 0.0374 ± 0.006 kPa | vapor or sublimation pressure (352.9 K): 0.0523 ± 0.0086 kPa | vapor or sublimation pressure (353 K): 0.0527 ± 0.0087 kPa
